Laboratory results as given in patent US5236934A, “1,2,3,4-tetrahydroisoquinolines useful in the treatment of CNS disorders” (E. I. Du Pont de Nemours and Company, priority 1992, dated 1993).
Values joined by “and” are separate entries in the source; they are usually repeats but may differ in a detail not shown here. Identical values can stand only once. Like-named read-outs stand apart in the source and are kept apart here.

Tests used:
[1] = system: AII receptors of rat adrenal medulla; test: [125I]AII binding to rat adrenal medullary microsomes; conditions: rat adrenal medullary microsomes; for binding resistant to displacement: of total binding, 60 min
Description: (§1) Procedures for the preparation of adrenal cortical microsomes and details of the binding assays are described in Chiu et al. (1989) J. Pharmacol. Exp. Ther. 250:867-874. The same procedures and conditions were used for adrenal medullary microsomes. […] After 60 min. of incubation, the reaction was terminated by addition of cold assay buffer. The bound and free radioactivity were rapidly separated through glass-fiber filters, and the trapped radioactivity was determined by gamma counting.

[2] = system: AII receptors of rat adrenal cortex; test: Total specific [125I]AII binding to rat adrenal cortical microsomes
Description: After 60 min. of incubation, the reaction was terminated by addition of cold assay buffer. The bound and free radioactivity were rapidly separated through glass-fiber filters, and the trapped radioactivity was determined by gamma counting.

[3] = target: T1, AII receptors of rat adrenal medulla (Rattus norvegicus, UniProt P35351); conditions: autoradiography; DuP 753 or EXP-655 at 10^-6 M
T1 sequence (P35351 1-363): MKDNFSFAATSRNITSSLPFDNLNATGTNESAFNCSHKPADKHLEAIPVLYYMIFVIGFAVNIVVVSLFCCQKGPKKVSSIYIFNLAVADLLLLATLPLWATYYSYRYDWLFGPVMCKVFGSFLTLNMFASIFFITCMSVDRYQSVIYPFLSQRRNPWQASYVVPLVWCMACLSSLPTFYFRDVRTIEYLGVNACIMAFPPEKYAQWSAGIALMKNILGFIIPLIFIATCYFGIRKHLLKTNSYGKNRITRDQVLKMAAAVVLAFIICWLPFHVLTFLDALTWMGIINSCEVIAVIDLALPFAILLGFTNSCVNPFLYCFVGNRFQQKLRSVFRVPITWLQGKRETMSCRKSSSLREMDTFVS
Description: (§2) Fresh tissue was frozen on powdered dry ice and stored at -70° C. until used. Sections were cut at 15 microns and thaw mounted onto gelatin subbed slides. […] Slides were placed under X-ray film (Kodak XAR-5) and exposed for 11/2 days before processing the film to produce the film autoradiograms. The slides were then fixed with paraformaldehyde vapor at 80° C. for two hours, dried under air, delipidated, and dipped in emulsion (Kodak NTB-2). The coated slides were exposed for 4-5 weeks, developed with Kodak D-19 and counter-stained with hemotoxylin-eosin to view the histology.

[4] = system: AII receptors of rat adrenal cortex; type: binding; conditions: autoradiography; DuP 753 or EXP-655 at 10^-6 M
Description: as §2

[5] = system: AII receptor subtypes of rat adrenal cortical membranes; test: [125I]AII binding to rat adrenal cortical membranes with and without DTT pretreatment
From the text: 102:685-696, except the above binding assay conditions were used.

[6] = system: AII binding sites of rat aortic smooth muscle cells; test: AII receptor binding in rat aortic smooth muscle cells
[7] = target: T1, AII receptors of rat adrenal medulla; test: [125I]AII binding to rat adrenal medullary microsomes; design: from tissue; host or cells: rat adrenal medullary microsomes; conditions: rat adrenal medulla
Description: as §1

[8] = system: potassium stimulated release of [3H]ACh; conditions: in vitro; cited from earlier work
AT1 receptor = test: [125I]AII binding to AT1 receptor, rat adrenal cortical microsomes, in the presence of 10^-5 M EXP-655 (DuP 753-sensitive sites)
Description: as §1

[9] = system: trypsin activated collagenase in rat heart myocytes; conditions: cited from earlier work
pial arterial dilation = conditions: rat cranial window, cited from earlier work
[10] = system: AII binding sites in the brain; test: Distribution of AII binding sites in brain slices
Description: as §2

[11] = system: potassium current in cultured neurones; conditions: cited from earlier work
rabbit aorta = test: AII-induced rabbit aortic contractions; conditions: at concentrations of up to 10^-5 M
[12] = system: chick chorioallantoic membrane; conditions: cited from earlier work
[13] = Blood pressure lowering in hypertensive animals (renal artery-ligated hypertensive rats); type: in vivo, rat; conditions: doses up to 30 mg/kg, IV
[14] = system: AII receptors of rat adrenal cortex; conditions: reported in U.S. Pat. No. 4,812,462; cited from earlier work
[15] = system: collagenase activity in cultured cardiac fibroblasts; conditions: cited from earlier work
[16] = reported in U.S. Pat. No. 4,812,462; cited from earlier work
[17] = cited from earlier work; for effect on avoidance learning: IVT
[18] = cited from earlier work
AT2 receptor = target: T2, AT2 receptor (Rattus norvegicus, UniProt P35351); test: [125I]AII binding to AT2 receptor, rat adrenal cortical microsomes, in the presence of 10^-5 M DuP 753 (DuP […]-insensitive sites)
T2 construct: AT1 and AT2 receptor subtypes in rat adrenal cortex microsomes; from tissue; host or cells: rat adrenal cortical microsomes (13,000-102,000 g)
T2 sequence (P35351 1-363): T1 sequence (P35351 1-363)
Description: as §1

[19] = injected into the dorsal neostriatum; cited from earlier work
[20] = in vivo; cited from earlier work
[21] = rat adrenal cortex microsomes, in the presence of 10^-5 M EXP-655, read-out: IC50 AT1

Molecule: CCCCc1nc(Cl)c(CO)n1Cc1ccc(-c2ccccc2-c2nn[nH]n2)cc1 [DuP 753]
- inhibition of binding ([1]; below 1×10^-6 M): 10%
- binding resistant to displacement [1]: About 90%
- plateau of constant binding ([2]; over a two-log concentration increase, 60 min): about 28 % of the total receptor-bound AII
- inhibition of total AII binding ([2]; rat adrenal cortex): 80%
- IC50 ([2]; rat adrenal cortex, read-out: IC50 on the sensitive sites): ~5 nM
- IC50 ([2]; rat adrenal cortical microsomes, DuP 753-sensitive site, read-out: approximated IC50, first site of biphasic displacement): ~5 nM
- labeling of the adrenal medulla [3]: not appreciably affected
- labeling over the adrenal cortex [4]: significantly reduced
- effect of DTT on inhibition of AII binding ([5]; 5 mM DTT): essentially abolished in the presence of DTT
- sensitivity of AII binding sites, rat aortic smooth muscle cells [6]: primarily the DuP 753-sensitive AII binding sites (AT1)
- inhibition of AII binding [7]: essentially inactive as an antagonist

Molecule: [1-sarcosine, 8-threonine]angiotensin II
- effect on potassium-stimulated release of ACh [8]: antagonized

Molecule: CNCC(=O)N[C@@H](CCCN=C(N)N)C(=O)N[C@H](C(=O)N[C@@H](Cc1ccc(O)cc1)C(=O)N[C@H](C(=O)N[C@@H](Cc1cnc[nH]1)C(=O)N1CCC[C@H]1C(=O)N[C@@H](C)C(=O)O)C(C)C)C(C)C [Saralasin]
- concentration giving complete displacement of AII ([2]; rat adrenal cortical microsomes): 100 nM
- IC50 ([2]; rat adrenal cortical microsomes, read-out: IC50, monophasic): 1 nM
- effect of DTT on inhibition of AII binding ([5]; 5 mM DTT): not significantly altered by DTT
- preference for one AII receptor subtype relative to the other (AT1 receptor; AT1 vs AT2): no preference

Molecule: Cc1cc(Cn2cnc3c2CC(C(=O)O)N(C(=O)C(c2ccccc2)c2ccccc2)C3)ccc1N (stereo not shown) [PD123177]
- block of angiotensin II induced inhibition of trypsin activated collagenase [9]: block the angiotensin II induced inhibition of trypsin activated collagenase
- block of pial arterial/arteriolar dilation (pial arterial dilation): block the pial arterial dilation

Molecule: Cc1cc(Cn2cnc3c2CC(C(=O)O)N(C(=O)C(c2ccccc2)c2ccccc2)C3)ccc1N (stereo not shown) [EXP-655]
- sensitivity of AII binding sites in the brain [10]: the majority of AII binding sites in the brain are DTT-insensitive, EXP-655-sensitive
- block of pial arterial/arteriolar dilation (pial arterial dilation; listed as EXP 655): shown to block
- binding resistant to displacement [1]: 10%
- inhibition of the total specific AII binding ([2]; at 3×10^-5 M, rat adrenal cortical microsomes): 20%
- inhibition of total AII binding ([2]; rat adrenal cortex): 20%
- labeling of the adrenal medulla [3]: almost totally eliminated
- block of effect to increase potassium current [11]: shown to block
- antagonizing AII-induced rabbit aortic contractions (rabbit aorta): inactive
- labeling over the adrenal cortex [4]: no apparent effect
- block of angiotensin II-induced increase in microvascular density / angiogenesis [12]: shown to block
- lowering blood pressure [13]: inactive
- affinity for AII receptors as reported [14]: high affinity for AII receptors
- inhibition of AII binding [7]: 90%
- block of effect to inhibit collagenase activity [15]: shown to block
- IC50 (AT1 receptor; [21]): ~300 µM and 300 µM
- IC50 (AT1 receptor; rat adrenal cortex, read-out: inhibitory constant IC50, AT1 site): ~300 µM
- antihypertensive activity as reported [16]: antihypertensive agent

Molecule: C[C@H](CS)C(=O)N1CCC[C@H]1C(=O)O [captopril]
- effect on avoidance learning [17]: prevented the renin-induced avoidance disruption
- scopolamine-induced disruption of performance ([18]; daily treatment): prevented
- light/dark habituation performance, rate of acquisition ([18]; subchronic treatment): increased the rate of acquisition

Molecule: O=C(O)C1Cc2cc(Oc3ccccc3)ccc2CN1C(=O)C(c1ccccc1)c1ccccc1 (stereo not shown) [Example 32, 2-Diphenylacetyl-6-phenoxy-1,2,3,4-tetrahydroisoquinoline-3-carboxylic acid]
- IC50 (AT2 receptor): 70 nM
- IC50 (AT1 receptor; [21]): > 10 µM

Molecule: lysine-8-vasopressin
- effect on retention of PA response [19]: no effect

Molecule: O[C@H](CS)[C@H](O)CS (racemic) [DTT, dithiothreitol]
- sensitivity of AT2 receptor to DTT (AT2 receptor): resistant to DTT inactivation
- sensitivity of AT1 receptor to DTT (AT1 receptor): particularly sensitive to inactivation by DTT

Molecule: AI: AI (compared with AII) (DRVYIHPFHL; Angiotensin-1; UniProt P01019 25-34, looked up)
- effect on potassium-stimulated release of ACh [8]: not AI

Molecule: AII: octapeptide hormone which is a component of the renin-angiotensin system (DRVYIHPF; Angiotensin-2; UniProt P01019 25-32, looked up)
- labeling of the adrenal medulla [3]: potently inhibited the labeling
- labeling over the adrenal cortex [4]: potently inhibited the labeling
- enhancement of inhibitory potency by DTT ([5]; 5 mM DTT): 2.5 fold
- IC50 ([5]; read-out: IC50 in the absence of DTT, without DTT): 1 nM
- effect on basal levels of ACh release [8]: without effects on basal levels
- effect on potassium-stimulated release of ACh [8]: reduced potassium-stimulated release of ACh
- effect on retention of PA response [19]: disruption in retention of a PA response

Molecule: NC(=O)[C@@H]1CCCN1C(=O)[C@H](Cc1cnc[nH]1)NC(=O)[C@@H]1CCC(=O)N1 [thyrotropin releasing hormone]
- effect on retention of PA response [19]: no effect

Molecule: CGP42112A
- block of angiotensin II-induced increase in microvascular density / angiogenesis [12]: block the increase in microvascular density

Molecule: COc1ccc(-c2cccc3c2CC(C(=O)O)N(C(=O)C(c2ccccc2)c2ccccc2)C3)cc1C (stereo not shown) [Example 25]
- IC50 (AT2 receptor): 60 nM
- IC50 (AT1 receptor; [21]): > 10 µM

Molecule: NCCCC[C@H](OP(=O)(O)CCCCc1ccccc1)C(=O)N1CCC[C@H]1C(=O)O [SQ 29852]
- memory of previously learned tasks [20]: protective effects on memory of previously learned tasks

B1: renin: an enzyme involved in endogenous AII biosynthesis (protein, UniProt P00797 67-406, looked up)
Renin: LTLGNTTSSVILTNYMDTQYYGEIGIGTPPQTFKVVFDTGSSNVWVPSSKCSRLYTACVYHKLFDASDSSSYKHNGTELTLRYSTGTVSGFLSQDIITVGGITVTQMFGEVTEMPALPFMLAEFDGVVGMGFIEQAIGRVTPIFDNIISQGVLKEDVFSFYYNRDSENSQSLGGQIVLGGSDPQHYEGNFHYINLIKTGVWQIQMKGVSVGSSTLLCEDGCLALVDTGASYISGSTSSIEKLMEALGAKKRLFDYVVKCNEGPTLPDISFHLGGKEYTLTSADYVFQESYSSKKLCTLAIHAMDIPPPTGPTWALGATFIRKFYTEFDRRNNRIGFALAR
- effect on avoidance learning [17]: disruption of avoidance learning
- AII level in CSF after renin ([17]; increased from 40, renin IVT): about 5000 fmol per mL
